Test results as given in patent publication US20040253675A1, “Method for GPCR assay with a coexpressed Galpha protein” (Hitachi, Ltd., priority 2003, published 2004).

Tests used:
M4 receptor = test: Ca-dependent Cl response in Xenopus oocytes coexpressing M4 receptor and chimeric Gqα subunit (G11α/G14α); assay type: cell-based; conditions: Xenopus oocyte, chimeric Gqα subunit coexpressed, clamped at −60 mV by TEVC, FIG. 5
Experimental: They were subjected to coexpression in Xenopus oocytes. […] Res. Commun. 201 (2), 894-901 (1994).
Thereafter, oocytes were cultured.

H2 receptor = H2 receptor (Homo sapiens, UniProt P25021); conditions: Xenopus oocyte
Chain of H2 receptor (P25021 whole entry): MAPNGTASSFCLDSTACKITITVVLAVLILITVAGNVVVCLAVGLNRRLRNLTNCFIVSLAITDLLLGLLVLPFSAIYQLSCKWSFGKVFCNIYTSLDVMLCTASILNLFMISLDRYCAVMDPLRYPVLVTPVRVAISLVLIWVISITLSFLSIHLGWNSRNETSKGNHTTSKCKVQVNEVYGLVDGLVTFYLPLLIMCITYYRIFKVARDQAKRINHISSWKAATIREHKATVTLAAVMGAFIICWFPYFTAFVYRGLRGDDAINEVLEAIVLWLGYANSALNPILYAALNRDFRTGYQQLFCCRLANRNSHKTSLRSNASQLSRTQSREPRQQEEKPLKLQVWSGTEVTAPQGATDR
From the text: Oocytes removed from a female Xenopus were selected by a conventional method. RNA encoding the H1 and H2 receptors, M1 to M5 receptors, δ opioid receptors, or mGlu1 receptors that were synthesized in vitro were transfected into the selected oocyte together with RNA encoding a chimeric Gqα subunit constituted by a portion of the G11 protein α subunit and a portion of the G14 protein α subunit that was similarly synthesized. As a control, an oocyte to which RNA of the chimeric Gqα subunit was not to be transfected was prepared. Thereafter, oocytes were cultured.
The cultured oocytes were clamped at −60 mV by TEVC. […] The occurrence of Ca-dependent Cl response was then assayed.
RNA encoding the H2 receptor was transfected in the oocytes. Simultaneously or 24 hours thereafter, RNA encoding the chimeric Gqα subunit constituted by a portion of the G11α subunit and a portion of the G14α subunit was transfected therein. Thereafter, the ligand responses of these oocytes were assayed by the method described in Example 1.

Row | Compound | response generated by ligand stimulus at various concentration levels (M4 receptor) | response generated by ligand, chimeric Gqα RNA transfected 24 hours after GPCR RNA compared with simultaneous transfection (H2 receptor; 10 μM ligand, FIG. 6) | response generated by ligand stimulus at various concentration levels (H2 receptor; chimeric Gqα subunit coexpressed, clamped at −60 mV by TEVC, FIG. 5)
1 | CC(=O)OCC[N+](C)(C)C [Ach] | correlations between ligand concentration and size of response |  | 
2 | NCCc1c[nH]cn1 [histamine] |  | greatly increased | correlations between ligand concentration and size of response
